Drawing on PubChem BioAssay (NCI), this text covers GI50 and TGI for 20 compounds.

Where “and” joins values, the source holds several entries; their conditions need not be identical. Identical values can stand only once.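 Growth conditions: 96-well plates. Treatment: test compound, 48 hours, 5 concentrations. Analysis: linear interpolation between bracketing concentrations; unreached endpoints set to highest concentration. At the GI50, growth is halved. TGI marks complete inhibition of growth.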

The test system of the first assay is OVCAR-4 ovarian. Kind of assay: inhibition of tumour cell growth, NCI panel, 48 h.
Regarding `O=C(/C=C\c1cccc([N+](=O)[O-])c1)/C=C/c1cccc([N+](=O)[O-])c1`, the GI50 was greater than 100 µM and the TGI was greater than 100 µM.

As to `O=C1c2cccnc2C(=O)c2c1c(C(=O)NCCCN1CCCCC1)c1ccccn21`, the GI50 was 0.31 µM and the TGI amounted to 1.32 µM.

`Cc1ccc2c(C3Cc4ccccc4N3C(=O)/C=C\C(=O)O)c(C)[nH]c2c1` (stereo unspecified) yielded a TGI greater than 100 µM.

With `O=C(Nc1ccc(OCc2nnc(-c3ccc(Cl)cc3)o2)c(F)c1)Nc1ccc(Cl)c(C(F)(F)F)c1`, the GI50 was 2.02 µM and the TGI was 7.59 µM.

Regarding `COC(=O)C1CC2CC(=NNC(N)=O)CC2C1` (stereo unspecified), the TGI was greater than 100 µM.

Turning to `O=C1CC(c2c[nH]c3ccccc23)C(=O)N1` (stereo unspecified), the TGI was greater than 100 µM.

Consider `COc1cc2c(c(OC)c1OC)-c1ccc(SC)c(=O)cc1C(NC(=O)c1ccccc1)CC2` (stereo unspecified), for which the TGI was found to be 22.2 µM.

As to `CCOC(=O)C1=C(C)N(c2ccc(Cl)cc2)[C@]2(C#N)C(O)=C(Cl)C(Cl)=C(O)[C@]12C#N`, the GI50 is greater than 100 µM and the TGI is greater than 100 µM.

The test system of another assay is SF-268 CNS. Kind of assay: inhibition of tumour cell growth, NCI panel, 48 h.
With `COc1cc(N2C(=O)[C@H](O)C2c2ccc(SC)cc2)cc(OC)c1OC` (stereo partly specified), the GI50 was less than 0.01 µM and the TGI is 59.3 µM.

As for `CCC(=O)C12OC3OC(C)(C)OC3C1OC(C)(C)O2` (stereo unspecified), the TGI was greater than 100 µM.

For the compound `O=C1OCC2=C1C(c1ccc(Cl)c(Cl)c1)c1cc3c(cc1N2CCO)OCCO3` (stereo unspecified), the GI50 was 0.261 µM and the TGI turned out to be 11.6 µM.

As to `O=C(/C=C/c1cc2ccccc2[nH]c1=O)/C=C/c1cc2ccccc2[nH]c1=O`, the GI50 was 18 µM and the TGI is 99.7 µM.

On to `CC/C=C\C/C=C\C/C=C\CCCCCCCC(=O)OCC(O)CO` (stereo unspecified), for which the TGI is greater than 100 µM.

`Cc1cccc(C)c1NC(=O)/C(=N/NC(N)=S)C(C)C(=O)c1ccc(Cl)cc1` (stereo unspecified): the TGI is greater than 100 µM.

`N#CC(C#N)=C1NC(=O)CC(=O)N1` registered a TGI greater than 100 µM.

For `Nc1nc(OCc2ccccc2)c2[nH]cnc2n1`, the GI50 is 53.2 µM; the TGI is 400 µM and 574 µM.

For `COc1cc2nc(N3CCCC3)nc(NCCc3ccccc3)c2cc1OC`, the GI50 was 1.97 µM and the TGI turned out to be 3.95 µM.

`COc1cc(C(=O)C/C(CCC(=O)Nc2ccccc2[N+](=O)[O-])=N\NC(N)=O)ccc1O` yielded a TGI greater than 100 µM.

For `C1CCC([PH+](C2CCCCC2)C2CCCCC2[PH+](C2CCCCC2)C2CCCCC2)CC1.[Au].[CH-]1CCCCC1CC1CCCC[N-]1` (stereo unspecified), the GI50 is 0.405 µM and the TGI is 2.11 µM.

On to `COc1ccc(-c2[nH]c3ccccc3c2-c2ccc(OC)cc2)cc1`, for which the GI50 was 3.99 µM and the TGI came to 15.1 µM.

Turning to `O=C(/C=C\c1cccc([N+](=O)[O-])c1)/C=C/c1cccc([N+](=O)[O-])c1`, the GI50 was 3.08 µM and the TGI was found to be 9.89 µM.

On to `O=C1c2cccnc2C(=O)c2c1c(C(=O)NCCCN1CCCCC1)c1ccccn21`, for which the GI50 was 1.25 µM and the TGI was found to be 8.3 µM.

As for `O=C(Nc1ccc(OCc2nnc(-c3ccc(Cl)cc3)o2)c(F)c1)Nc1ccc(Cl)c(C(F)(F)F)c1`, the GI50 is 3.33 µM and the TGI came to 12.5 µM.

`COC(=O)C1CC2CC(=NNC(N)=O)CC2C1` (stereo unspecified): the TGI is greater than 100 µM.

Turning to `COc1cc2c(c(OC)c1OC)-c1ccc(SC)c(=O)cc1C(NC(=O)c1ccccc1)CC2` (stereo unspecified), the TGI is 53.3 µM.

On to `CCOC(=O)C1=C(C)N(c2ccc(Cl)cc2)[C@]2(C#N)C(O)=C(Cl)C(Cl)=C(O)[C@]12C#N`, for which the GI50 was greater than 100 µM and the TGI is greater than 100 µM.

Another assay has as its system SNB-19 CNS. Kind of assay: inhibition of tumour cell growth, NCI panel, 48 h.
On to `COc1cc(N2C(=O)[C@H](O)C2c2ccc(SC)cc2)cc(OC)c1OC` (stereo partly specified), for which the GI50 was less than 0.01 µM and the TGI is greater than 100 µM.

For `CCC(=O)C12OC3OC(C)(C)OC3C1OC(C)(C)O2` (stereo unspecified), the TGI was greater than 100 µM.

As to `O=C1OCC2=C1C(c1ccc(Cl)c(Cl)c1)c1cc3c(cc1N2CCO)OCCO3` (stereo unspecified), the GI50 is 0.327 µM and the TGI was greater than 50 µM.

On to `O=C(/C=C/c1cc2ccccc2[nH]c1=O)/C=C/c1cc2ccccc2[nH]c1=O`, for which the GI50 was 21.1 µM and the TGI is greater than 100 µM.

In turn, `CC/C=C\C/C=C\C/C=C\CCCCCCCC(=O)OCC(O)CO` (stereo unspecified) yielded a TGI greater than 100 µM.

Turning to `Cc1cccc(C)c1NC(=O)/C(=N/NC(N)=S)C(C)C(=O)c1ccc(Cl)cc1` (stereo unspecified), the TGI is greater than 100 µM.

In turn, `N#CC(C#N)=C1NC(=O)CC(=O)N1` registered a TGI greater than 100 µM.

Regarding `Nc1nc(OCc2ccccc2)c2[nH]cnc2n1`, the GI50 is 86.2 µM and 33 µM; the TGI was 400 µM and 213 µM.

In the case of `COc1cc2nc(N3CCCC3)nc(NCCc3ccccc3)c2cc1OC`, the GI50 was 1.74 µM and the TGI worked out at 3.3 µM.

Compound `COc1cc(C(=O)C/C(CCC(=O)Nc2ccccc2[N+](=O)[O-])=N\NC(N)=O)ccc1O` showed a TGI greater than 100 µM.

Turning to `C1CCC([PH+](C2CCCCC2)C2CCCCC2[PH+](C2CCCCC2)C2CCCCC2)CC1.[Au].[CH-]1CCCCC1CC1CCCC[N-]1` (stereo unspecified), the GI50 is 0.327 µM and the TGI was 1.46 µM.

For `COc1ccc(-c2[nH]c3ccccc3c2-c2ccc(OC)cc2)cc1`, the GI50 is 5.06 µM and the TGI amounted to 20.6 µM.

In the case of `O=C(/C=C\c1cccc([N+](=O)[O-])c1)/C=C/c1cccc([N+](=O)[O-])c1`, the GI50 is 16.4 µM and the TGI is greater than 100 µM.

`O=C1c2cccnc2C(=O)c2c1c(C(=O)NCCCN1CCCCC1)c1ccccn21`: the GI50 is 1.12 µM and the TGI is 2.57 µM.

The compound `Cc1ccc2c(C3Cc4ccccc4N3C(=O)/C=C\C(=O)O)c(C)[nH]c2c1` (stereo unspecified) displayed a TGI greater than 100 µM.

`O=C(Nc1ccc(OCc2nnc(-c3ccc(Cl)cc3)o2)c(F)c1)Nc1ccc(Cl)c(C(F)(F)F)c1`: the GI50 is 2.92 µM and the TGI amounted to 18.3 µM.

`COC(=O)C1CC2CC(=NNC(N)=O)CC2C1` (stereo unspecified) showed a TGI greater than 100 µM.

`COc1cc2c(c(OC)c1OC)-c1ccc(SC)c(=O)cc1C(NC(=O)c1ccccc1)CC2` (stereo unspecified): the TGI worked out at 29.1 µM.

As for `CCOC(=O)C1=C(C)N(c2ccc(Cl)cc2)[C@]2(C#N)C(O)=C(Cl)C(Cl)=C(O)[C@]12C#N`, the GI50 was greater than 100 µM and the TGI was greater than 100 µM.
